What is called melting point is the temperature, or range, at which the solid turns liquid.

Results on 24 compounds are retold here after patent US6541497B1, “Hypoglycemic and hypolipidemic compounds” (Eli Lilly and Company, priority 1996, dated 2003).

Data set [1] concerns Male obese-diabetic viable yellow (A^vy) mice. Nature of the data set: Serum/blood glucose after 14 days of feeding compound admixed in chow. In kind it is in vivo. The method, then:
(§1) Male obese-diabetic viable yellow (A^vy) mice were divided into two groups of 6 each. One group was fed repelletized Purina 5008 Chow and the second group was fed a repelletized chow consisting of Purina 5008 Chow, admixed with varying doses of the candidate compound. Blood samples were taken before the experiment was initiated and 14 days after initiation. Body weight and food consumption were monitored. The blood glucose level after 14 days of treatment was measured and recorded as a percent of the initial value, compared to the untreated control (first) group. The results are presented in the table below and include the dose of the candidate compound as a weight percent of the amount incorporated into the diet. The positive control is a known hypoglycemic agent (J. Med. Chem. 35:2617, 1992) administered in the same way as a compound of the present invention.

The test system is the same in data set [2]. Nature of the data set: Serum/plasma triglycerides after 14 days in the same feeding study. The data set is classed as in vivo. Conditions: untreated about 4 mmol/mL. The method, then: as §1
In the same feeding study described above, plasma triglycerides were measured against a glycerol standard using reagents from Sigma Kit No. 339 (St. Louis, Mo.), adapted for assay on the Monarch System (Instrumentation Laboratory, Lexington, Mass.). Day 14 levels are recorded below as mM of triglycerides per mL. Serum triglyceride values for untreated animals averaged about 4 mmol/mL.

The mark [3] stands for this setting: dose 0.03 (mg/100 g food) in diet.
The mark [4] stands for this setting: dose 0.01 (mg/100 g food) in diet.

`O=C(N[C@@H](Cc1ccc(OCCc2coc(-c3ccccc3)n2)cc1)C(=O)O)c1ccc(Cl)cc1` [Example 13, O-[2-(2-Phenyl-4-oxazolyl)ethyl]-N-4-chlorobenzoyl-L-tyrosine] came in with a melting point of 158 to 161 °C.
Compound `Cc1oc(-c2ccccc2)nc1CCOc1ccc(C[C@H](NC(=O)OCc2ccccc2)C(=O)O)cc1` [Example No. 22, O-[2-(5-Methyl-2-phenyl-4-oxazolyl)ethyl]-N-CBZ-L-tyrosine] yielded a melting point of 75 to 95 °C. Besides, the “Serum Glucose after 14 days % of day 0 value” (from here on “Serum Glucose after 14 days %”) in data set [1] (setting [3]) is 53 % of day 0 value.
For `O=C(Cc1ccccc1)N[C@@H](Cc1ccc(OCCc2coc(-c3ccccc3)n2)cc1)C(=O)O` [Example No. 5, O-[2-(2-Phenyl-4-oxazolyl)ethyl]-N-phenylacetyl-L-tyrosine] the same measures were 146 to 151 °C and 57 % of day 0 value.
`CC(C)(Oc1ccc(Cl)cc1)C(=O)O` [clofibric acid, reference compound] registered a Serum Triglyceride after 14 days in data set [2] (dose 0.10 (mg/100 g food) in diet) of 1.9 mM.
With `NC(=O)[C@H](Cc1ccc(OCCc2coc(-c3ccccc3)n2)cc1)NC(=O)OCc1ccccc1` [Example No. 10, O-[2-(2-Phenyl-4-oxazolyl)ethyl]-N-CBZ-L-tyrosine carboxamide], the “Serum Glucose after 14 days %” value in data set [1] (setting [3]) is given as 88 % of day 0 value.
`Cc1oc(-c2ccccc2)nc1CCOc1ccc(CC(NC(=O)OCc2ccccc2)C(=O)O)cc1` (racemic) [Example No. 9, O-[2-(5-Methyl-2-phenyl-4-oxazolyl)ethyl]-N-CBZ-D,L-tyrosine] registered a melting point of 142 to 143 °C. In addition, the “Serum Glucose after 14 days %” value in data set [1] (setting [3]) was 66 % of day 0 value. This compound also had a Serum Triglyceride after 14 days in data set [2] (setting [3]) of 2.5 mM.
For `Cc1ccc(C(=O)N[C@@H](Cc2ccc(OCCc3coc(-c4ccccc4)n3)cc2)C(=O)O)cc1` [Example No. 6, O-[2-(2-Phenyl-4-oxazolyl)ethyl]-N-4-methylbenzoyl-L-tyrosine] the same measures were 180 to 182 °C, 65 % of day 0 value and 2.3 mM.
The compound `O=C(N[C@@H](COCc1cccc(OCCc2coc(-c3ccccc3)n2)c1)C(=O)O)OCc1ccccc1` [Example No. 24, O-(3-(2-(2-Phenyl-4-oxazolyl)ethoxy]benzyl)-N-CBZ serine] registered a melting point of 55 to 57 °C. The “Serum Glucose after 14 days %” value in data set [1] (setting [4]) was 88 % of day 0 value. For the same compound, in data set [2] (setting [4]), the Serum Triglyceride after 14 days was determined as 0.3 mM.
With `O=C(COc1ccccc1)N[C@@H](Cc1ccc(OCCc2coc(-c3ccccc3)n2)cc1)C(=O)O` [Example 12, O-[2-(2-Phenyl-4-oxazolyl)ethyl]-N-phenoxyacetyl-L-tyrosine], the melting point lay within 94 to 97 °C.
For the compound `O=C(N[C@@H](Cc1ccc(OCCc2coc(-c3ccccc3)n2)cc1)C(=O)O)OCc1ccccc1` [Example No. 1, O-[2-(2-Phenyl-4-oxazolyl)ethyl]-N-CBZ-L-tyrosine], the melting point is 105 to 111 °C. For the same compound, the “Serum Glucose after 14 days %” value in data set [1] (setting [3]) was 49 % of day 0 value. Besides, the Serum Triglyceride after 14 days in data set [2] (setting [3]) was determined as 1.3 mM.
As to `O=C(N[C@@H](Cc1ccc(OCCc2coc(-c3ccccc3)n2)cc1)C(=O)O)c1ccccc1` [Example No. 4, O-[2-(2-Phenyl-4-oxazolyl)ethyl]-N-BZ-L-tyrosine], the “Serum Glucose after 14 days %” value in data set [1] (setting [3]) is listed as 60 % of day 0 value. The same compound showed a Serum Triglyceride after 14 days in data set [2] (setting [3]) of 1.5 mM.
On to `CCCCc1ccc(COC(=O)N[C@@H](Cc2ccc(OCCc3coc(-c4ccccc4)n3)cc2)C(=O)O)cc1` [Example 19, O-[2-(2-Phenyl-4-oxazolyl)ethyl]-N-(4-n-Butylbenzyloxycarbonyl)-L-tyrosine], for which the melting point lay within 86 to 89 °C.
Still for that read-out and setting: to `O=C(N[C@@H](Cc1ccc(OCCc2cccc3ccccc23)cc1)C(=O)O)OCc1ccccc1` [Example 15, O-[2-(1-Naphthyl)ethyl]-N-CBZ-L-tyrosine] belongs 80 to 83 °C; to `N[C@@H](Cc1ccc(OCCc2coc(-c3ccccc3)n2)cc1)C(=O)O` [Example 3, O-[2-(2-Phenyl-4-oxazolyl)ethyl]-L-tyrosine], 231 to 235 °C.
Consider `CN(C(=O)OCc1ccccc1)[C@@H](Cc1ccc(OCCc2coc(-c3ccccc3)n2)cc1)C(=O)O` [Example No. 8, O-[2-(2-Phenyl-4-oxazolyl)ethyl]-N-methyl-N-CBZ-L-tyrosine], for which the “Serum Glucose after 14 days %” value in data set [1] (dose 0.06 (mg/100 g food) in diet) is listed as 75 % of day 0 value. In data set [2] (setting [3]), this compound showed a Serum Triglyceride after 14 days of 3.6 mM.
In the case of `O=C(N[C@@H](Cc1ccc(OCCc2coc(-c3ccccc3)n2)cc1)C(=O)O)OCc1ccc(C(F)(F)F)cc1` [Example 17, O-[2-(2-Phenyl-4-oxazolyl)ethyl]-N-(4-trifluoromethylbenzyloxycarbonyl)-L-Tyrosine], the melting point was 177 to 180.5 °C.
Regarding “4-[2-(2-Phenyl-4-oxazolyl)ethoxy]benzyl-N-CBZ-L-serine [Example No. 7]”, the “Serum Glucose after 14 days %” value in data set [1] (setting [3]) is recorded as 34 % of day 0 value. This compound returned a Serum Triglyceride after 14 days in data set [2] (setting [3]) of 0.4 mM.
Regarding `O=C(N[C@@H](Cc1ccc(OCCc2coc(-c3ccccc3)n2)cc1)C(=O)[O-])OCc1ccccc1.[Na+]` [Example No. 2, O-[2-(2-Phenyl-4-oxazolyl)ethyl]-N-CBZ-L-tyrosine, sodium salt], the melting point lay in the range of 204 to 207 °C. Besides, the “Serum Glucose after 14 days %” value in data set [1] (setting [3]) is on record as 67 % of day 0 value. Also, the Serum Triglyceride after 14 days in data set [2] (setting [3]) was found to be 3.3 mM.
Turning to `O=C(N[C@@H](Cc1ccc(OCCc2coc(-c3ccccc3)n2)cc1)C(=O)O)OCc1ccc(Br)cc1` [Example 16, O-[2-(2-Phenyl-4-oxazolyl)ethyl]-N-(4-bromobenzyloxycarbonyl)-L-tyrosine], the melting point is 173 to 176 °C.
As for `COc1ccc(COC(=O)N[C@@H](Cc2ccc(OCCc3coc(-c4ccccc4)n3)cc2)C(=O)O)cc1` [Example 18, O-[2-(2-Phenyl-4-oxazolyl)ethyl]-N-(4-methoxybenzyloxycarbonyl)-L-tyrosine], the melting point lay in the range of 132.5 to 135.5 °C.
Still for that read-out and setting: to `O=C(O)[C@H](Cc1ccc(OCCc2coc(-c3ccccc3)n2)cc1)NS(=O)(=O)Cc1ccccc1` [Example 14, O-[2-(2-Phenyl-4-oxazolyl)ethyl]-N-phenylmethylsulfonyl-L-tyrosine] belongs 141 to 143 °C; to `N[C@@H](Cc1ccc(OCCc2coc(-c3ccccc3)n2)cc1)C(=O)N(O)C(=O)OCc1ccccc1` [Example 11, O-[2-(2-Phenyl-4-oxazolyl)ethyl]-N-CBZ-L-tyrosine hydroxamic acid], 198 to 199 °C.
As for `O=C(NC(Cc1cccc(OCCc2coc(-c3ccccc3)n2)c1)C(=O)O)OCc1ccccc1` (stereo not drawn) [Example No. 21, α-(3-[2-(2-Phenyl-4-oxazolyl)ethoxy]benzyl)-N-CBZ glycine], the melting point is 149 to 151 °C (dec.). Also, in data set [1] (setting [3]), the “Serum Glucose after 14 days %” value is recorded as 48 % of day 0 value. Besides, in data set [2] (setting [3]), the Serum Triglyceride after 14 days was 1.4 mM.
In the case of `O=C(NCc1ccccc1)N[C@@H](Cc1ccc(OCCc2coc(-c3ccccc3)n2)cc1)C(=O)O` [Example 20, O-[2-(2-Phenyl-4-oxazolyl)ethyl]-N-(N′-Benzylcarbamoyl)-L-tyrosine], the melting point fell in the range of 196.5 to 198 °C.
